Data: US20030035812A1, “Immune enhancement compositions and use thereof” (priority 2000, published 2003)

What was measured:
[1] = test system: Fibrosarcoma SMT-5 (target cell); test: Activity of sampled macrophages against target cells (3H-thymidine uptake); format: cell-based, mouse; details: 500 CIU vaccine, macrophages sampled day 14, target:effector 1:7, 24 hours
Procedure: (§1) The administration of provitamin and inoculation of a vaccine (500 CIU) were performed in the same manner as in Example 1. 14 Days after the inoculation of the vaccine, macrophages were sampled from the abdominal cavity of the mouse and the number of macrophages was counted through a microscope. Also, the activity of the macrophage was examined as follows. Fibrosarcoma SMT-5 (target cell) and the sampled macrophages (effector cell) were mixed at a ratio of 1:7 and cultured in CO2 medium for 24 hours. 8 Hours before the completion of culture, ^3H-thymidine was added and the amount of ^3H-thymidine taken up into the residual target cells was measured by a liquid scintillation counter. From the value obtained, the activity of macrophage was determined. The amount of ^3H-thymidine in the control group was the amount of ^3H-thymidine taken up into the target cells where the macrophages were not added.

Sendai virus [2] = test: Secretory IgA induction by Sendai virus live vaccine, trachea and bronchia wash, ELISA; format: in vivo, mouse; details: 500 CIU vaccine, 14 days after inoculation
Procedure: The administraion of provitamin and inoculation of a vaccine were performed in the same manner as in Example 1. 14 Days after the inoculation of vaccine, the mouse was sacrificed, the trachea and bronchia were twice washed with 1 ml of PBS (phosphate buffered saline), and IgA recovered in PBS was measured by the enzyme linked immunosorbent assay (ELISA).
Sendai virus was fixed on a plate and reacted with a test solution. Thereafter, peroxidase marker anti-mouse IgA immunoglobulin was reacted and then phenylenediamine 2HCl was added to cause coloration. OD 492 was measured and from the calibration curve obtained based on the standard IgA, the IgA amount in the test solution was determined.

macrophages = test: Number of macrophages sampled from the abdominal cavity 14 days after vaccine inoculation; format: in vivo, mouse; details: 500 CIU vaccine, 14 days after inoculation
Procedure: as §1

Sendai virus [3] = test: Circulating antibody unit (HIU) in serum by hemagglutination inhibition (HI) reaction after vaccine administration; format: in vivo, mouse; details: 500 CIU vaccine nasally
Procedure: The provitamins prepared to have a composition in the following Formulation Examples 1 to 4 were individually or in combination (hereinafter referred to as “provitamin”) dissolved in a phosphate buffered saline (PBS) to a concentration of 0.5% and then continuously administered perorally or peritoneally to a mouse (ICR, 3 weeks old, male) from two weeks before the administration of a vaccine. The sample was administered such that APM per day was 80 mg/kg-body weight in the case of peroral administration and the dose per day was 40 mg/kg-body weight in the case of injection.
The vaccine used here was TR-5 strain which is an attenuated strain of Sendai virus, and 500 CIU (cell infectious unit) thereof was nasally administered to a mouse under ether anesthesia. That is, a stock solution (10^6 CIU/ml) of TR-5 strain was diluted with PBS and 50 μl of each sample was nasally administered. After the administration of vaccine, the serum was sampled in aging (inoculation day, after 7 days, after 14 days and after 21 days) and the antiviral antibody unit in the serum was measured by the hemagglutination inhibition (HI) reaction which inhibits the hemagglutination (HA) reaction.
The HA reaction is a reaction where a virus particle or an HA antigen adsorbs to an erythrocyte and combines the erythrocytes with each other to cause hemagglutination. In the measurement of the HA unit, 2-fold step dilution series of a virus solution are prepared, a constant amount of erythrocytes is added to each dilution and after the passing of a predetermined time, the agglutination image is examined. The HA unit (HAU) is the reciprocal of the highest dilution number in a test tube showing agglutination positive. The HA reaction is inhibited by previously adding an antiviral antibody to the virus solution. This is the HI reaction.
To 25 μl of a serum subjected to 2-fold step dilution, 25 μl of a virus solution adjusted to 16 HAU was added and allowed to stand at room temperature for 1 hour. Subsequently, 50 μl of a 0.5% chicken erythrocyte suspension was added and allowed to stand at 4° C. for 1 hour. Thereafter, the HI unit was determined.

[4] = test system: Sendai virus strongly toxic strain; test: Survival rate after nasal infection with Sendai virus strongly toxic strain; format: in vivo, mouse; details: challenge 15 LD50 at day 14, 20 days after infection
Procedure: The administration of provitamin and inoculation of a vaccine were performed in the same manner as in Example 1, and 14 days after the inoculation of attenuated vaccine, Sendai virus strongly toxic strain (1.7×10^7 CIU/ml) was subjected to 15-hold dilution in PBS. Subsequently, 70 μl of the dilution (about 8×10^4 CIU:15 LD50) was nasally infected to a mouse under ether anesthesia and 20 days after the infection with the strongly toxic strain, the survival rate of mice was examined.
The test solution was step-diluted and each dilution was used for a group of animals. The life and death were examined and the point of dilution degree where 50% of death was recognized was designated as LD50.

[5] = peritoneal administration of provitamin 40 mg/kg per day, day 0
[6] = peritoneal administration of provitamin 40 mg/kg per day, day 7
[7] = peritoneal administration of provitamin 40 mg/kg per day, day 14
[8] = peritoneal administration of provitamin 40 mg/kg per day, day 21
[9] = peroral administration of provitamin 80 mg/kg per day, day 0 after inoculation
[10] = peroral administration of provitamin 80 mg/kg per day, day 7
[11] = peroral administration of provitamin 80 mg/kg per day, day 14
[12] = peroral administration of provitamin 80 mg/kg per day, day 21
[13] = peroral, amount of vaccine inoculated 0 CIU
[14] = peroral, amount of vaccine inoculated 50 CIU
[15] = peroral, amount of vaccine inoculated 500 CIU

Compound	Macrophage Activity ([1]; peritoneal route)	Macrophage Activity ([1]; peroral route)	IgA (Sendai virus [2]; peritoneal route) [U/μg]	IgA (Sendai virus [2]; peroral route) [U/μg]	Macrophage/Body (macrophages; peritoneal route)	Macrophage/Body (macrophages; peroral route)	HIU (Sendai virus [3]; [5]) [HIU]	HIU (Sendai virus [3]; [6]) [HIU]	HIU (Sendai virus [3]; [7]) [HIU]	HIU (Sendai virus [3]; [8]) [HIU]	HIU (Sendai virus [3]; [9]) [HIU]	HIU (Sendai virus [3]; [10]) [HIU]	HIU (Sendai virus [3]; [11]) [HIU]	HIU (Sendai virus [3]; [12]) [HIU]	Survival Rate ([4]; peritoneal, amount of vaccine inoculated 0 CIU)	Survival Rate ([4]; peritoneal, amount of vaccine inoculated 50 CIU)	Survival Rate ([4]; peritoneal, amount of vaccine inoculated 500 CIU)	Survival Rate [4, 13]	Survival Rate [4, 14]	Survival Rate [4, 15]
O=C1O[C@H]([C@@H](O)CO)C(O)=C1OP(=O)(O)O [Formulation Example 1, L-ascorbic acid-2-monophosphate]	22.1	20.5	69	51	9.1 × 10^6	6.8 × 10^6	<16	16	32	64	<16	<16	16	64	0/10	8/10	8/10	0/10	9/10	9/10
O=C1O[C@H]([C@@H](O)CO)C(O)=C1OP(=O)(O)O [Formulation Example 2, L-ascorbic acid-2-monophosphate]		20.2		69		6.5 × 10^6	<16	<16	32	64	<16	<16	16	64				1/10	9/10	10/10
